Test results reported in ChEMBL document CHEMBL2311471, “Synthesis of (E)-8-(3-chlorostyryl)caffeine analogues leading to 9-deazaxanthine derivatives as dual A(2A) antagonists/MAO-B inhibitors” (J Med Chem, 2013).
Calls of active or inactive are those of the source. The calls are words filed in the database; no cut-off is given here.

Experiments:
Mus musculus [1] = assay: Reversal of haloperidol-induced catalepsy in CD1 mouse at 30 to 100 mg/kg, po treated 2.5 hrs after haloperidol injection measured every 60 mins for 3 hrs; format: functional, organism-based
[2] = biological target: T1, Amine oxidase [flavin-containing] A (Homo sapiens, UniProt P21397); assay: Inhibition of human MAOA after 1 hr by luminescence assay
T1 sequence (P21397 whole entry): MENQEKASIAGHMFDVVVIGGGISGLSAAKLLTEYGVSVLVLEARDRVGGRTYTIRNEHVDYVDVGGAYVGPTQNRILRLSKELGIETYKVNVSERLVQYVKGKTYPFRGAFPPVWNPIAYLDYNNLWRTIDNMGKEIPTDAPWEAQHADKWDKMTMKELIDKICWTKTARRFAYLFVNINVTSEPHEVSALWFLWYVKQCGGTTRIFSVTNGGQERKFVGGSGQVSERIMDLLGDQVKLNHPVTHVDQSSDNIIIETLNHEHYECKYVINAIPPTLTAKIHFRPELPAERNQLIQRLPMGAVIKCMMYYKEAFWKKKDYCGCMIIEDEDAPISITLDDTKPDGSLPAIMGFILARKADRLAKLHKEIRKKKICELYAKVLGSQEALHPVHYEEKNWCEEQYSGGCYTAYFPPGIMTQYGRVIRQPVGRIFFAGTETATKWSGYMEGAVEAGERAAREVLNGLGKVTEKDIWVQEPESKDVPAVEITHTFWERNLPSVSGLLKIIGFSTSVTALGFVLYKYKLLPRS

Mus musculus [3] = assay: General behavioral response in CD1 mouse assessed as increase in licking behavior at 100 mg/kg, po after 240 mins by Irwin test; format: ADME, organism-based; parameters: dose 100 mg/kg, route oral; settings: in vivo, 4 h
[4] = biological target: Sodium-dependent noradrenaline transporter (Homo sapiens) (UniProt P23975); assay: Displacement of [3H]nisoxetine from human recombinant norepinephrine transporter expressed in CHO cells at 10 uM after 120 mins by scintillation counting analysis; format: cell-based
Mus musculus [5] = assay: General behavioral response in CD1 mouse assessed as induction of limbic stereotype at 30 to 100 mg/kg, po after 90 mins by Irwin test; format: organism-based, Limbic system; parameters: dose 30-100 mg/kg, route oral; settings: in vivo, 1.5 h
Mus musculus [6] = assay: Reversal of haloperidol-induced catalepsy in po dosed CD1 mouse treated 2.5 hrs after haloperidol injection measured every 60 mins for 3 hrs; format: functional, organism-based
Adenosine receptor A2a [7] = biological target: T2, Adenosine receptor A2a (Homo sapiens, UniProt P29274); assay: Displacement of [3H]ZM241385 from human adenosine A2A receptor expressed in HEK293 cells after 1 hr by microbeta scintillation counting analysis; format: cell-based
[8] = biological target: 5-hydroxytryptamine receptor 2B (Homo sapiens) (UniProt P41595); assay: Displacement of [125I](+/-)DOI from human recombinant 5HT2B receptor expressed in CHO cells at 10 uM after 60 mins by scintillation counting analysis; format: cell-based
Mus musculus [9] = assay: General behavioral response in CD1 mouse assessed as induction of limbic stereotype at 10 mg/kg, po after 90 mins by Irwin test; format: organism-based, Limbic system; parameters: dose 10 mg/kg, route oral; settings: in vivo, 1.5 h
[10] = biological target: T3, Substance-K receptor (Homo sapiens) (UniProt P21452); assay: Displacement of [125I]NKA human recombinant NK2 receptor expressed in CHO cells at 10 uM after 60 mins by scintillation counting analysis; format: cell-based
T3 sequence (whole entry): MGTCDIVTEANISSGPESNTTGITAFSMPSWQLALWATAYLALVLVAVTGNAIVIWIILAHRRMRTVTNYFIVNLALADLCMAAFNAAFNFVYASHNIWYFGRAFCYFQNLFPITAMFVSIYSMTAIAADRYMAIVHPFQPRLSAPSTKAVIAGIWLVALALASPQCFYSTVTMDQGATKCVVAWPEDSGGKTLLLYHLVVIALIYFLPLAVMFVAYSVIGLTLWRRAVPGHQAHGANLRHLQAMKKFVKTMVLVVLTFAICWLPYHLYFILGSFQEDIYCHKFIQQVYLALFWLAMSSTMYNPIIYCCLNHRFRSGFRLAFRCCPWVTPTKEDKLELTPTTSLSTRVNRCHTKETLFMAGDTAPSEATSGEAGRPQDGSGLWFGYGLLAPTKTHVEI

Mus musculus [11] = assay: General behavioral response in CD1 mouse assessed as induction of striatal stereotype at 30 to 100 mg/kg, po after 90 mins by Irwin test; format: organism-based; parameters: dose 30-100 mg/kg, route oral; settings: in vivo, 1.5 h
Adenosine receptor A2a [12] = biological target: T2, Adenosine receptor A2a; assay: Displacement of [3H]CGS 21680 from human recombinant adenosine A2A receptor expressed in HEK293 cells at 10 uM after 120 mins by scintillation counting analysis; format: cell-based
[13] = biological target: T4, Amine oxidase [flavin-containing] B (Homo sapiens, UniProt P27338); assay: Inhibition of human MAOB after 1 hr by luminescence assay
T4 sequence (P27338 whole entry): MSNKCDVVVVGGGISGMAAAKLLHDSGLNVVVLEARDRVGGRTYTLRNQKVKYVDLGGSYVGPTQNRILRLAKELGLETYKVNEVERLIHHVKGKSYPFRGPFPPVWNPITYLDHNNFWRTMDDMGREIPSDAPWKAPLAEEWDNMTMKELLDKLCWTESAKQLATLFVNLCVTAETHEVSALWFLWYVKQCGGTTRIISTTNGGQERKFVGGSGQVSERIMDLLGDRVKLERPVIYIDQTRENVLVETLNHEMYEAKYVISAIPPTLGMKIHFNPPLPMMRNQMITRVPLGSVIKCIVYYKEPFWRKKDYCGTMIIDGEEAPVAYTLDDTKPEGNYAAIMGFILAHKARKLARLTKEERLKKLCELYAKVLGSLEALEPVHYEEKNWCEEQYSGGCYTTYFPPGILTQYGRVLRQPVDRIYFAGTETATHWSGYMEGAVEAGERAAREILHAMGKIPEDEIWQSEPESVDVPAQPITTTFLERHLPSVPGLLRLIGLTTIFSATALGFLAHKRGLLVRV

Mus musculus [14] = assay: General behavioral response in CD1 mouse assessed as induction of striatal stereotype at 10 mg/kg, po after 90 mins by Irwin test; format: organism-based; parameters: dose 10 mg/kg, route oral; settings: in vivo, 1.5 h
[15] = biological target: T5, Adenosine receptor A1 (Homo sapiens) (UniProt P30542); assay: Displacement of [3H]DPCPX from human recombinant adenosine A1 receptor expressed in CHO cells at 10 uM after 60 mins by scintillation counting analysis; format: cell-based
T5 sequence (whole entry): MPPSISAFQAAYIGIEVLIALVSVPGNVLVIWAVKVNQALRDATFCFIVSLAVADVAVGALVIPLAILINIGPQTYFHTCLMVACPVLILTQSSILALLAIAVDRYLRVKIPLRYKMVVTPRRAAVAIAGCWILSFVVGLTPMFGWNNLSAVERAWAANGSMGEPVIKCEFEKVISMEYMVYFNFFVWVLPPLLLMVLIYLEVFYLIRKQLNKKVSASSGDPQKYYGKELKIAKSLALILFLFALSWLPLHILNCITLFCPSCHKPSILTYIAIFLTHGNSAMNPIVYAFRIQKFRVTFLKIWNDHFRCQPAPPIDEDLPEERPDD

Mus musculus [16] = assay: Reversal of haloperidol-induced catalepsy in CD1 mouse at 10 mg/kg, po treated 2.5 hrs after haloperidol injection measured every 60 mins for 3 hrs; format: functional, organism-based; parameters: dose 10 mg/kg
[17] = biological target: T6, Adenosine receptor A3 (Homo sapiens) (UniProt P0DMS8); assay: Displacement of [125I]AB-MECA from human recombinant adenosine A3 receptor expressed in HEK293 cells at 10 uM after 120 mins by scintillation counting analysis; format: cell-based
T6 sequence (whole entry): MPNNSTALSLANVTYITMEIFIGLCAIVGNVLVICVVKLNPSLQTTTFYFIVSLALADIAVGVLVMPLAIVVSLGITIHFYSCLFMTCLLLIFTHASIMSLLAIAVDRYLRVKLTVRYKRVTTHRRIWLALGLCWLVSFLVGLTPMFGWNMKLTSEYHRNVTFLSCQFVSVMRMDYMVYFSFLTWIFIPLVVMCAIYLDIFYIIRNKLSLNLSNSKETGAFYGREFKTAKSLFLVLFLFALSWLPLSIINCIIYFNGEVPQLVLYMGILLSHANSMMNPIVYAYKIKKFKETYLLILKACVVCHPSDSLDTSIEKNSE

Adenosine receptor A2a [18] = biological target: Adenosine receptor A2a (Rattus norvegicus, UniProt P30543); assay: Binding affinity to A2A receptor in rat brain striatal membrane by radioligand displacement assay; format: cell membranes
Adenosine receptor A2a (Rattus norvegicus, UniProt P30543), sequence (P30543 whole entry): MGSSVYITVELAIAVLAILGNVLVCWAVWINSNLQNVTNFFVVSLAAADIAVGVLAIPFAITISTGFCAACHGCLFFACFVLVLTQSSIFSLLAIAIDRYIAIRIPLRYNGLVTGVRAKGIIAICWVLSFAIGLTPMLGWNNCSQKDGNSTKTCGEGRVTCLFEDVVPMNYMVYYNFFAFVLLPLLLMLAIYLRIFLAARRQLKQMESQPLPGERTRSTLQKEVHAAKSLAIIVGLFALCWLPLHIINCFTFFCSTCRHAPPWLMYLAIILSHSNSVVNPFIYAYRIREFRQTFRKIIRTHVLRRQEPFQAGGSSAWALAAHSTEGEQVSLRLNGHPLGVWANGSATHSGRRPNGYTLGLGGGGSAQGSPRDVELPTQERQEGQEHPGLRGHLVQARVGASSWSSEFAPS

T2 sequence (P29274 whole entry): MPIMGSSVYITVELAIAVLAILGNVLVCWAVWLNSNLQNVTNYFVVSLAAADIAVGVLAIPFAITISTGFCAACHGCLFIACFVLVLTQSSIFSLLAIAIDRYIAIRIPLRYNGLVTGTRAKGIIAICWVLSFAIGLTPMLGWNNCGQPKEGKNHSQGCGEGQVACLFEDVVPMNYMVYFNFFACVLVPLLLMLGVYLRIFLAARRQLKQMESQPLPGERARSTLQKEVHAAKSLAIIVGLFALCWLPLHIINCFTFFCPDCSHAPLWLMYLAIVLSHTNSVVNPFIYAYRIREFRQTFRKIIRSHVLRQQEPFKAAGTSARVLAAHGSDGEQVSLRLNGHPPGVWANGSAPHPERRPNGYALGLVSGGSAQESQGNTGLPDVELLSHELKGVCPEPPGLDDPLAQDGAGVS
Sodium-dependent noradrenaline transporter (Homo sapiens), sequence (P23975 whole entry): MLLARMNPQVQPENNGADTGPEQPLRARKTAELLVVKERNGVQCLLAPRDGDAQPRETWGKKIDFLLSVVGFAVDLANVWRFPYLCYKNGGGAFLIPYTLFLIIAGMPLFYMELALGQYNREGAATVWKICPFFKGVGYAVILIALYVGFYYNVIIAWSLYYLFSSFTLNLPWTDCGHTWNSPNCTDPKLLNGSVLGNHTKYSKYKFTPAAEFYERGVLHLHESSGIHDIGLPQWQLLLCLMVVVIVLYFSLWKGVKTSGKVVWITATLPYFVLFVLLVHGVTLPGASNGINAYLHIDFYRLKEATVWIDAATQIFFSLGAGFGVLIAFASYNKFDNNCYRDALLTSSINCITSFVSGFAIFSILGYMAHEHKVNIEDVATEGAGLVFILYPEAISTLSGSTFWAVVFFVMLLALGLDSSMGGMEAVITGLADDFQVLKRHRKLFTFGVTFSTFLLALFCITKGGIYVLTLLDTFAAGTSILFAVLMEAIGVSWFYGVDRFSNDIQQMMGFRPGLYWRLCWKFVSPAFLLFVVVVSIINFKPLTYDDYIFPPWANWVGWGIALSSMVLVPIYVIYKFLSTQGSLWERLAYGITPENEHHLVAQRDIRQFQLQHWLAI
5-hydroxytryptamine receptor 2B (Homo sapiens), sequence (P41595 whole entry): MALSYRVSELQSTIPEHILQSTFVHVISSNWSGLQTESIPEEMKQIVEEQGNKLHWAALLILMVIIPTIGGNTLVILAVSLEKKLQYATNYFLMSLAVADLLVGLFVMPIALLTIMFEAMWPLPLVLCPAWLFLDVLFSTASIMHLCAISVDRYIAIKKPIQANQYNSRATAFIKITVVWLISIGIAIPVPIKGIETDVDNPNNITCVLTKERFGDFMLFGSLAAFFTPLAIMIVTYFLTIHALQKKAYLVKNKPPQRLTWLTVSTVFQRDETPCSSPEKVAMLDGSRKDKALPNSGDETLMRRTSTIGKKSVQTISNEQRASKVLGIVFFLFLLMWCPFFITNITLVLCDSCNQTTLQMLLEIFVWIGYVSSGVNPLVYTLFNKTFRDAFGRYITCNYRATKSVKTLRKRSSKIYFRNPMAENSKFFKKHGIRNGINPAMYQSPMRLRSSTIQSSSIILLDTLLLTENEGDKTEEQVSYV

IC50 [2]	inhibition [4]	Ki (Adenosine receptor A2a [7])	inhibition [8]	inhibition [10]	inhibition (Adenosine receptor A2a [12])	IC50 [13]	inhibition [15]	inhibition [17]	SMILES	Activity (Mus musculus [1])	Activity (Mus musculus [3])	Activity (Mus musculus [5])	Activity (Mus musculus [6])	Activity (Mus musculus [9])	Activity (Mus musculus [11])	Activity (Mus musculus [14])	Activity (Mus musculus [16])	Ki (Adenosine receptor A2a [18])
10 µM	57%	0.26 µM	72%	75%	91%	0.2 µM	59%	60%	Cn1c(=O)c2c(cc(/C=C/c3ccc(Cl)cc3)n2C)n(C)c1=O	Active	Toxic	Toxic	Dose-dependent effect	Non-toxic	Toxic	Non-toxic	inactive	
									C#CCn1c(=O)c2c(nc(C#Cc3ccccc3)n2C)n(C)c1=O									0.3 µM
